Measurements: US6797700B2, “Antithrombotic azacycloalkylalkanoyl peptides and pseudopeptides” (Aventis Pharmaceuticals, Inc., priority 1993, dated 2004)
Read-outs that look alike come from different tables or passages of the source.

Legend:
[1] = system: fixed activated platelets; experiment: Platelet Aggregation Assay (fixed-activated platelets, fibrinogen-mediated aggregation); format: cell-based; settings: aggregation initiated by human fibrinogen 250 μg/ml, read-out: Inhibition of Fixed Platelet Aggregation (IC50 μM)
Method: Preparation of Fixed-Activated Platelets
Platelets are isolated from human platelet concentrates using the gel-filtration technique as described by Marguerie, G. A., et al., J. Biol. Chem. 254, 5357-5363 (1979) and Ruggeri, Z. M., et al., J. Clin. Invest. 72, 1-12 (1983). The platelets are suspended at a concentration of 2×10^8 cells/ml in a modified calcium-free Tyrode's buffer containing 127 mM sodium chloride, 2 mM magnesium chloride, 0.42 mM Na2HPO4, 11.9 mM NaHCO3, 2.9 mM KCl, 5.5 mM glucose, 10 mM HEPES, at a pH of 7.35 and 0.35% human serum albumin (HSA). These washed platelets are activated by addition of human a-thrombin at a final concentration of 2 units/ml, followed by thrombin inhibitor I-2581 at a final concentration of 40 μM. To the activated platelets is added paraformaldehyde to a final concentration of 0.50% and this incubated at room temperature for 30 minutes. The fixed activated platelets are then collected by centrifugation at 650×g for 15 minutes. The platelet pellets are washed four times with the above Tyrode's-0.35% HSA buffer and resuspended to 2×10^8 cells/ml in the same buffer.
Platelet Aggregation Assay
The fixed activated platelets are incubated with a selected dose of the compound to be tested for platelet aggregation inhibition for one minute and aggregation initiated by addition of human fibrinogen to a final concentration of 250 μg/ml. A platelet aggregation profiler Model PAP-4 is used to record the platelet aggregation. The extent of inhibition of aggregation is expressed as the percentage of the rate of aggregation observed in the absence of inhibitor.

[2] = system: ADP-induced platelet aggregation in canine platelet rich plasma; experiment: Inhibition of ADP-Induced ex-vivo Platelet Aggregation after oral administration; format: in vivo, mongrel dogs; settings: dog; for inhibition at 5 mg/kg / inhibition at 10 mg/kg: Canis lupus familiaris, Platelet
Method: Inhibition of ADP-Induced ex-vivo Platelet Aggregation
Control blood samples are obtained 5-10 minutes prior to administration of the test compound in mongrel dogs weighing from 10 to 20 kg. The compound is administered intragasticly, via aqueous gavage, or orally, via gelatin capsule. Blood samples (5 ml) are then obtained at 30 minute intervals for 3 hours, and at 6, 12, and 24 hours after dosing. Each blood sample is obtained by venipuncture of the cephalic vein and is collected directly into a plastic syringe containing one part 3.8% trisodium citrate to nine parts blood.
Ex vivo Canine Platelet Aggregation
The blood samples are centrifuged at 1000 rpm for 10 minutes to obtain platelet rich plasma (PRP). After removal of the PRP, the sample is centrifuged for an additional 10 minutes at 2000 rpm to obtain platelet poor plasma (PPP). Platelet count in the PRP is determined by using a Coulter Counter (Coulter Electronics, Hialeah, Fla.). If the concentration of platelets in the PRP is greater than 300,000 platelets/μl, then the PRP is diluted with PPP to adjust the platelet count to 300,000 platelets/μl. Aliquots of PRP (250 μl) are then placed in siliconized glass cuvettes (7.25×55 mm, Bio/Data Corp, Horsham, Pa.). Epinephrine (final concentration of 1 μM) is then added to the PRP, which is incubated for one minute at 37° C. A stimulator of platelet aggregation, ADP at a final concentration of 10 μM, is then added to the PRP. Platelet aggregation is monitored spectrophotometrically utilizing a light transmission aggregometer (Bio/Data Platelet Aggregation Profiler, Model PAP-4, Bio/Data Corp, Horsham, Pa.). For compound to be tested, the rate of change (slope) of light transmittance and the maximum light transmittance (maximum aggregation) is recorded in duplicate. Platelet aggregation data are reported as the percent decrease (mean±SEM) in slope or maximum aggregation as compared to data obtained from control PRP, which is prepared from blood samples obtained prior to administration of the test compound.

[3] = dose 5 mg/kg, 1 h after dosing, read-out: % Inhibition of ex-vivo Platelet Aggregation After Oral Administration, 1 h
[4] = dose 5 mg/kg, 3 h after dosing, read-out: % Inhibition of ex-vivo Platelet Aggregation After Oral Administration, 3 h
[5] = fixed activated human platelets
[6] = dose 5 mg/kg, 6 h after dosing, read-out: % Inhibition of ex-vivo Platelet Aggregation After Oral Administration, 6 h

IC50 ([1]; Homo sapiens, Platelet) [µM] | SMILES | other results
0.77 | CCN(CC(=O)NC(CC(=O)O)C(=O)NC(C(=O)O)C(C)C)C(=O)CCC1CCNCC1 (centres unmarked) [Example 9, N-[N-[N-(3-(piperidin-4-yl)propanoyol)-N-ethylglycyl]aspartyl]valine] | 
0.047 | CCN(CC(=O)NC(CC(=O)O)C(=O)NC(CC1CCCC1)C(=O)O)C(=O)CCCC1CCNCC1 (centres unmarked) [Example 33, N-[N-[N-(4-(piperidin-4-yl)butanoyl)-N-ethylglycyl]aspartyl]-b-cyclopentylalanine] | 
 | CCN(CC(=O)NC(CC(=O)O)C(=O)NC(Cc1ccc2ccccc2c1)C(=O)O)C(=O)CCCC1CCNCC1 [Example 8, N-[N-[N-(4(piperidin-4-yl)butanoyl)-N-ethylglycyl]aspartyl]-L-b-naphth-2-yl alanine] | inhibition at 5 mg/kg [2, 3]: 30%; inhibition at 5 mg/kg [2, 4]: < 20%
0.048 | CCN(CC(=O)NC(CC(=O)O)C(=O)NC(CC1CCC(C2CCCCC2)CC1)C(=O)O)C(=O)CCCC1CCNCC1 (centres unmarked) [Example 28, N-[N-[N-(4-(piperidin-4-yl)butanoyl)-N-ethylglycyl]aspartyl]-b-(4-cyclohexyl)cyclohexylalanine] | 
1.37 | CCN(CC(=O)NC(CC(=O)O)C(=O)N[C@H](CC1CCCCC1)C(=O)O)C(=O)CCCC1CCNCC1 (stereo partly drawn) [Example 20, N-[N-[N-(4-(piperidin-4-yl)butanoyl)-N-ethylglycyl]aspartyl]-b-cyclohexyl-D-alanine] | 
 | O=C(O)C[C@H](NC(=O)CNC(=O)CCCC1CCNCC1)C(=O)N[C@@H](Cc1c[nH]c2ccccc12)C(=O)O [Compound of EPA '481, 4-4(piperidyl)butanoyl glycyl aspartyl tryptophan, reference compound] | IC50 [1, 5]: 0.047 µM; % Inhibition of ex-vivo Platelet Aggregation After Oral Administration, 1 h ([2]; dose 5 mg/kg, 1 h after dosing): 53%; % Inhibition of ex-vivo Platelet Aggregation After Oral Administration, 3 h ([2]; dose 5 mg/kg, 3 h after dosing): <20%
0.72 | CCN(CC(=O)NC(CC(=O)O)C(=O)NC(C(=O)O)C(C)C)C(=O)CCCC1CCNCC1 (centres unmarked) [Example 4] | inhibition at 10 mg/kg ([2]; 1 h after dosing, read-out: % Inhibition of ex-vivo Platelet Aggregation After Oral Administration, 1 h): 90%; inhibition at 10 mg/kg ([2]; 3 h after dosing, read-out: % Inhibition of ex-vivo Platelet Aggregation After Oral Administration, 3 h): 50%; inhibition at 10 mg/kg ([2]; 6 h after dosing, read-out: % Inhibition of ex-vivo Platelet Aggregation After Oral Administration, 6 h): < 20%
0.104 | CCN(CC(=O)NC(CC(=O)O)C(=O)OCCCC12CC3CC(CC(C3)C1)C2)C(=O)CCCC1CCNCC1 (centres unmarked) [Example 18, 3-Adamant-1-ylpropyl-N-[N-(4-(piperidin-4-yl)butanoyl)-N-ethylglycyl]aspartate] | 
0.064 | CCOC(=O)C(CC1CCCCC1)NC(=O)C(CC(=O)O)NC(=O)CN(CC)C(=O)CCCC1CCNCC1 [Example 11, N-[N-[N-(4-(piperidin-4-yl)butanoyl)-N-ethylglycyl]aspartyl]-L-b-cyclohexyl alanine, ethyl ester] | inhibition at 5 mg/kg [2, 3]: 100%; inhibition at 5 mg/kg [2, 4]: 100%; inhibition at 5 mg/kg [2, 6]: 60%; inhibition at 5 mg/kg ([2]; dose 5 mg/kg, 12 h after dosing, read-out: % Inhibition of ex-vivo Platelet Aggregation After Oral Administration, 12 h): 37%
0.119 | CCN(CC(=O)NC(CC(=O)O)C(=O)NC(Cc1cccc2c1CCCC2)C(=O)O)C(=O)CCCC1CCNCC1 (centres unmarked) [Example 27, N-[N-[N-(4-(piperidin-4-yl)butanoyl)-N-ethylglycyl]aspartyl]-b-(1,2,3,4)-tetrahydronaphth-5-ylalanine] | 
0.09 | CCNC(=O)C(CC1CCCCC1)NC(=O)C(CC(=O)O)NC(=O)CN(CC)C(=O)CCCC1CCNCC1 (centres unmarked) [Example 22, N-[N-[N-(4-(piperidin-4-yl)butanoyl)-N-ethylglycyl]aspartyl]-b-cyclohexylalanine ethyl amide] | 
0.129 | CCN(CC(=O)NC(CC(=O)O)C(=O)NC(CO)CC1CCCCC1)C(=O)CCCC1CCNCC1 (centres unmarked) [Example 24, N-[N-[N-(4-(piperidin-4-yl)butanoyl)-N-ethylglycyl]aspartyl]-a-cyclohexylmethylethanolamine] | 
0.07 | CCN(CC(=O)NC(CC(=O)O)C(=O)NC(CC1CCCCCCC1)C(N)=O)C(=O)CCCC1CCNCC1 (centres unmarked) [Example 30, N-[N-[N-(4-(piperidin-4-yl)butanoyl)-N-ethylglycyl]aspartyl]-b-cyclooctylalanine amide] | 
0.074 | CCOC(=O)C(CCC1CCCCC1)NC(=O)C(CC(=O)O)NC(=O)CN(CC)C(=O)CCCC1CCNCC1 (centres unmarked) [Example 34, N-[N-[N-(4-(piperidin-4-yl)butanoyl)-N-ethylglycyl]aspartyl]-b-cyclohexylmethylalanine ethyl ester] | 
0.053 | CCN(CC(=O)NC(CC(=O)O)C(=O)NC(CCCC1CCCCC1)C(=O)O)C(=O)CCCC1CCNCC1 (centres unmarked) [Example 31, N-[N-[N-(4-(piperidin-4-yl)butanoyl)-N-ethylglycyl]aspartyl]-a-cyclohexylpropylglycine] | 
0.046 | CCN(CC(=O)NC(CC(=O)O)C(=O)NC(CCC1CCCCC1)C(N)=O)C(=O)CCCC1CCNCC1 (centres unmarked) [Example 25, N-[N-[N-(4-(piperidin-4-yl)butanoyl)-N-ethylglycyl]aspartyl]-b-cyclohexylmethylalanine amide] | 
0.096 | CCN(CC(=O)NC(CC(=O)O)C(=O)NC(CC1CCC2CCCCC2C1)C(=O)O)C(=O)CCCC1CCNCC1 [Example 17, N-[N-[N-(4-(piperidin-4-yl)butanoyl)-N-ethylglycyl]aspartyl]-L-b-cis-decahydronaphth-2-ylalanine] | 
0.078 | CCN(CC(=O)NC(CC(=O)O)C(=O)NC(CC1CCCCCCC1)C(=O)O)C(=O)CCCC1CCNCC1 (centres unmarked) [Example 23, N-[N-[N-(4-(piperidin-4-yl)butanoyl)-N-ethylglycyl]aspartyl]-b-cyclooctylalanine] | 
0.029 | CCN(CC(=O)NC(CC(=O)O)C(=O)NC(CC12CC3CC(CC(C3)C1)C2)C(=O)O)C(=O)CCCC1CCNCC1 (centres unmarked) [Example 26, N-[N-[N-(4-(piperidin-4-yl)butanoyl)-N-ethylglycyl]aspartyl]-b-adamant-1-ylalanine] | 
 | CCN(CC(=O)NC(CC(=O)O)C(=O)NC(CC1CCCC2CCCCC21)C(=O)O)C(=O)CCCC1CCNCC1 (centres unmarked) [Example 21, N-[N-[N-(4-(piperidin-4-yl)butanoyl)-N-ethylglycyl]aspartyl]-b-decahydronaphth-1-ylalanine] | IC50 [1, 5]: 0.055 µM
0.032 | CCN(CC(=O)NC(CC(=O)O)C(=O)NC(CC1CCCCCC1)C(=O)O)C(=O)CCCC1CCNCC1 (centres unmarked) [Example 29, N-[N-[N-(4-(piperidin-4-yl)butanoyl)-N-ethylglycyl]aspartyl]-b-cycloheptylalanine] | 
0.052 | CCN(CC(=O)NC(CC(=O)O)C(=O)NC(CCC1CCCCCCC1)C(=O)O)C(=O)CCCC1CCNCC1 (centres unmarked) [Example 32, N-[N-[N-(4-(piperidin-4-yl)butanoyl)-N-ethylglycyl]aspartyl]-b-cyclooctylmethylalanine] | 
 | CCN(CC(=O)NC(CC(=O)O)C(=O)NC(C(=O)O)C1CCCCC1)C(=O)CCCC1CCNCC1 [Example 13, N-[N-[N-(4-(piperidin-4-yl)butanoyl)-N-ethylglycyl]aspartyl]-L-a-cyclohexyl glycine] | inhibition at 5 mg/kg [2, 3]: 100%; inhibition at 5 mg/kg [2, 4]: 100%; inhibition at 5 mg/kg [2, 6]: 25%
